Data taken from patent publication US9650334B2 (AbbVie Deutschland GmbH & Co. KG, priority 2013, dated 2017).

Biological target: T1, human GlyT1c transporter (Homo sapiens, UniProt P48067)
T1 sequence (P48067 1-706): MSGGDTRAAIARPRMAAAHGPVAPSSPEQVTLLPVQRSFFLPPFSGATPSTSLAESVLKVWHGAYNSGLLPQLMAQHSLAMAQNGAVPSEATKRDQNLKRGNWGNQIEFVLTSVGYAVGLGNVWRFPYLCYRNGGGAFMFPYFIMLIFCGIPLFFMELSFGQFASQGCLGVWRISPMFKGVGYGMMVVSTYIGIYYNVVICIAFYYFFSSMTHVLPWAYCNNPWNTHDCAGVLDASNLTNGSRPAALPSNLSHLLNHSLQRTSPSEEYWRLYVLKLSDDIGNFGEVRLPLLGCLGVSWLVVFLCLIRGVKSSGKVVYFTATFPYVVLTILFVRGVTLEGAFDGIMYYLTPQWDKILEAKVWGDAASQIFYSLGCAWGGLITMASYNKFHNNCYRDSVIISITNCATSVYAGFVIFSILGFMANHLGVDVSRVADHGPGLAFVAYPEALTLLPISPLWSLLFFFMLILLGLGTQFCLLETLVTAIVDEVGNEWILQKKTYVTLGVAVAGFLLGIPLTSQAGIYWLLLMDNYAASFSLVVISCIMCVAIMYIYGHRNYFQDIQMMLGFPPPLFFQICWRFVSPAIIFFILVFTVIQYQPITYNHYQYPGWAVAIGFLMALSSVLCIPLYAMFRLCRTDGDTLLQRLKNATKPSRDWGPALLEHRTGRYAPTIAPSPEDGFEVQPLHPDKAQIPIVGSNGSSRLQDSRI
Assay: Radioligand binding assays using recombinant CHO cell membranes expressing human GlyT1
Conditions: Ki, radioligand binding to human GlyT1c transporter-expressing CHO cell membranes

Ki [µM]	SMILES
≤ 10	Cn1cnc(S(=O)(=O)N2CC3CCCN(C(=O)c4cccc(C(F)(F)F)c4Cl)C3C2)c1 (stereo not shown) [Example 874, [2-chloro-3-(trifluoromethyl)phenyl]{6-[(1-methyl-1H-imidazol-4-yl)sulfonyl]octahydro-1H-pyrrolo[3,4-b]pyridin-1-yl}methanone]
≤ 1	Cn1cnc(S(=O)(=O)N2CC3CCCN(Cc4ccc(C(F)(F)F)cc4Cl)C3C2)c1 (stereo not shown) [Example 879, 1-[2-chloro-4-(trifluoromethyl)benzyl]-6-[(1-methyl-1H-imidazol-4-yl)sulfonyl]octahydro-1H-pyrrolo[3,4-b]pyridine]
≤ 1	Cn1cnc(S(=O)(=O)N2CC3CCCN(C(=O)c4ccc(C(F)(F)F)cc4Cl)C3C2)c1 (stereo not shown) [Example 880, [2-chloro-4-(trifluoromethyl)phenyl]{6-[(1-methyl-1H-imidazol-4-yl)sulfonyl]octahydro-1H-pyrrolo[3,4-b]pyridin-1-yl}methanone]
≤ 1	Cn1cnc(S(=O)(=O)N2CC(C(=O)NCc3ccc(F)c(Cl)c3)C3(CCCCC3)C2)c1 (stereo not shown) [Example 881, N-(3-chloro-4-fluorobenzyl)-2-[(1-methyl-1H-imidazol-4-yl)sulfonyl]-2-azaspiro[4.5]decane-4-carboxamide]
≤ 1	Cn1cnc(S(=O)(=O)N2CC(C(=O)NCc3ccc(F)c(F)c3)C3(CCCCC3)C2)c1 (stereo not shown) [Example 882, N-(3,4-difluorobenzyl)-2-[(1-methyl-1H-imidazol-4-yl)sulfonyl]-2-azaspiro[4.5]decane-4-carboxamide]
≤ 10	Cn1cnc(S(=O)(=O)N2C[C@H](c3ccc(F)cc3)[C@@H](N3C(=O)Cc4ccccc43)C2)c1 [Example 883, 1-{(3R,4S)-4-(4-fluorophenyl)-1-[(1-methyl-1H-imidazol-4-yl)sulfonyl]pyrrolidin-3-yl}-1,3-dihydro-2H-indol-2-one]
≤ 0.1	Cn1cnc(S(=O)(=O)N2CC3CCCCC3(NCc3ccc(C(F)(F)F)cc3)C2)c1 (stereo not shown) [Example 884, 2-[(1-methyl-1H-imidazol-4-yl)sulfonyl]-N-[4-(trifluoromethyl)benzyl]octahydro-3aH-isoindol-3a-amine]
≤ 1	Cn1cnc(S(=O)(=O)N2CC(COc3ccc(F)cc3)C(c3ccccn3)C2)c1 (stereo not shown) [Example 886, 2-{4-[(4-fluorophenoxy)methyl]-1-[(1-methyl-1H-imidazol-4-yl)sulfonyl]pyrrolidin-3-yl}pyridine]

The next lines start with the compound.

SMILES	Ki [µM]
Cc1cccc(C(N[C@H]2CN(S(=O)(=O)c3cn(C)cn3)C[C@@H]2c2ccc(F)cc2)C(F)(F)F)c1 (stereo partly drawn) [Example 875, (3R,4S)-4-(4-fluorophenyl)-1-[(1-methyl-1H-imidazol-4-yl)sulfonyl]-N-[2,2,2-trifluoro-1-(3-methylphenyl)ethyl]pyrrolidin-3-amine]	≤ 10
Cc1ccc(C(N[C@H]2CN(S(=O)(=O)c3cn(C)cn3)C[C@@H]2c2ccc(F)cc2)C(F)(F)F)cc1 (stereo partly drawn) [Example 876, (3R,4S)-4-(4-fluorophenyl)-1-[(1-methyl-1H-imidazol-4-yl)sulfonyl]-N-[2,2,2-trifluoro-1-(4-methylphenyl)ethyl]pyrrolidin-3-amine]	≤ 1
Cn1cnc(S(=O)(=O)N2[C@@H]3CC[C@H]2[C@H](c2ccc(F)cc2)[C@H]3Nc2ccc(F)c(C(F)(F)F)c2)c1 [Example 877, (1R,2R,3R,4S)-3-(4-fluorophenyl)-N-[4-fluoro-3-(trifluoromethyl)phenyl]-7-[(1-methyl-1H-imidazol-4-yl)sulfonyl]-7-azabicyclo[2.2.1]heptan-2-amine]	≤ 10
Cn1cnc(S(=O)(=O)N2C3CCC2C(c2ccc(F)cc2)C3Nc2ccc(F)c(C(F)(F)F)c2)c1 (stereo not shown) [Example 878, 3-(4-fluorophenyl)-N-[4-fluoro-3-(trifluoromethyl)phenyl]-7-[(1-methyl-1H-imidazol-4-yl)sulfonyl]-7-azabicyclo[2.2.1]heptan-2-amine]	≤ 10
Cn1cnc(S(=O)(=O)N2CC(Nc3cccc(OC(F)(F)F)c3)c3ccccc32)c1 (stereo not shown) [Example 887, 1-[(1-methyl-1H-imidazol-4-yl)sulfonyl]-N-[3-(trifluoromethoxy)phenyl]-2,3-dihydro-1H-indol-3-amine]	≤ 0.1
